Data on 13 compounds can be found in patent publication US11034715B2, “Ectonucleotidase inhibitors and methods of use thereof” (Calithera Biosciences, Inc., priority 2016, dated 2021).

Assay [1] deals with recombinant CD73 (Homo sapiens (Human), UniProt P21589). Nature of the assay: Inhibition of the CD73 enzyme in vitro (soluble recombinant CD73, AMP, Malachite Green). It is filed as biochemical. The conditions noted are these: recombinant CD73 0.5 nM, AMP 50 μM, 30 minutes at room temperature. Here is the method:
The concentration of inorganic phosphate was determined using a phosphate standard curve.

Assay [2] deals with endogenous, cell-bound CD73 on SK-MEL-28 cells (Homo sapiens (Human), UniProt P21589). Nature of the assay: Inhibition of endogenous, cell-bound CD73 enzyme activity in SK-MEL-28 cells (AMP, Malachite Green). The conditions noted are these: 100 μM AMP, 30 minutes at room temperature. In kind it is cell-based. The method, then: The day before the experiment, 5000 cells were plated per well in a 96-well plate. Cells were washed twice with 200 μL reaction buffer (20 mM HEPES, pH 7.4, 125 mM NaCl, 1 mM KCl, 2 mM MgCl2, 10 mM glucose) to remove residual inorganic phosphate. After washing, assays contained serial dilutions of test compounds and 100 μM of AMP in a total volume of 200 μL reaction buffer, with a final DMSO concentration ≤0.5%. After 30 minutes at room temperature, supernatant was removed from the cells. […] The concentration of inorganic phosphate was determined using a phosphate standard curve to determine IC50.

pIC50: −log10 of the molar value.

Chain of endogenous, cell-bound CD73 on SK-MEL-28 cells (P21589 27-574): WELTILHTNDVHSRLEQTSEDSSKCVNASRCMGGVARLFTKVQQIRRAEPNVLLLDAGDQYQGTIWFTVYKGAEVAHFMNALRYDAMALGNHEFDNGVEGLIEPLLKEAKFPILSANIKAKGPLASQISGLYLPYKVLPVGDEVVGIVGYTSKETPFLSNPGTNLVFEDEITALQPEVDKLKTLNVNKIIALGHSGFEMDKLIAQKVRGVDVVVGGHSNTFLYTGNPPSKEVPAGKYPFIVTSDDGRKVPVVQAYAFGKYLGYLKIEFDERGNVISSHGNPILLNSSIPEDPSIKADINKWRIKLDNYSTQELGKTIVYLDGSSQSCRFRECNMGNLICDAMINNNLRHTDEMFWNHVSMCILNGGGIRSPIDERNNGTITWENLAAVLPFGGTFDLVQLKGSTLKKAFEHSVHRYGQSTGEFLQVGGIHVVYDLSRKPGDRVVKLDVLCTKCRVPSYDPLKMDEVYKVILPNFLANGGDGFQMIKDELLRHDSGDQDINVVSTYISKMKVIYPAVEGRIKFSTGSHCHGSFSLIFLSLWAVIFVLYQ
Chain of recombinant CD73 (P21589 27-547): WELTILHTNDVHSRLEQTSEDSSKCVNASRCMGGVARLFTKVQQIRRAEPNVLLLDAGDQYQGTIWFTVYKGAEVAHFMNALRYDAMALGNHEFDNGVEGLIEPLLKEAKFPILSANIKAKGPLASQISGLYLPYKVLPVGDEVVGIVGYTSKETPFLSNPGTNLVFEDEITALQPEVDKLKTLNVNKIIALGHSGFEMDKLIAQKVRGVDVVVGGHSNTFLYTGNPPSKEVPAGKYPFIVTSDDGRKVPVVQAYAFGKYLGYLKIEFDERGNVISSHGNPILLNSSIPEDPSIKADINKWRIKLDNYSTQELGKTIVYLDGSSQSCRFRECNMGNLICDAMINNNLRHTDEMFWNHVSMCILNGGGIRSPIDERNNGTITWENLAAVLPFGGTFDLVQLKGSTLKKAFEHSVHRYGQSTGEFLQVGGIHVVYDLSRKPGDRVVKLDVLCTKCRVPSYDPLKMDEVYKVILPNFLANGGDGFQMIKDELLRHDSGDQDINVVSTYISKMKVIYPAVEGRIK

Usually pIC50 stands for the IC50 on a negative log10 scale, so that one unit is a factor of ten. With `Nc1nc(Cl)nc2c1ncn2[C@@H]1O[C@H](COC(Cc2ccc3c(c2)OC(F)(F)O3)(C(=O)O)C(=O)O)[C@@H](O)[C@@H]1F` [compound 110], the negative-log IC50 (pIC50) in assay [1] was 7.18; in assay [2] it was 6.44. Taken in the same sequence, the figures for `CCOC(=O)C(Cc1ccc(OC(F)(F)F)cc1)(OC[C@H]1O[C@@H](n2cnc3c(N)nc(Cl)nc32)[C@@H](F)[C@@H]1O)C(=O)O` (single isomer, unassigned) [compound 37] were 6.14 and 6.22. The like results for `O=C(O)C(Cc1ccccc1)(OC[C@H]1O[C@@H](n2cnc3c(O)nc(Cl)nc32)[C@@H](F)[C@@H]1O)C(=O)O` [compound 74, 2-benzyl-2-(((2R,3R,4S,5R)-5-(2-chloro-6-hydroxy-9H-purin-9-yl)-4-fluoro-3-hydroxytetrahydrofuran-2-yl)methoxy)malonic acid] were, in that order, 5.78 and 5.59.

With `O=C(O)C(Cc1ccccc1)(OC[C@H]1O[C@@H](n2cnc3c(SC4CCCC4)nc(Cl)nc32)[C@@H](F)[C@@H]1O)C(=O)O` [compound 109], the pIC50 was 6.22 in assay [1] and 5.72 in assay [2]. The like results for `NC(=O)c1ccc(CC(OC[C@H]2O[C@@H](n3cnc4c(N)nc(Cl)nc43)[C@@H](F)[C@@H]2O)(C(=O)O)C(=O)O)cc1` [compound 111] were, in that order, 6.85 and 6.74. Take `Nc1nc(Cl)nc2c1ncn2[C@@H]1O[C@H](COC(Cc2ccc(Cl)c(OC(F)(F)F)c2)(C(=O)O)C(=O)O)[C@@H](O)[C@@H]1F` [compound 125]: the pIC50 in assay [1] was 6.62; in assay [2], 6.08.

For `Nc1nc(Cl)nc2c1ncn2[C@@H]1O[C@H](COC(Cc2ccc(F)c(F)c2F)(C(=O)O)C(=O)O)[C@@H](O)[C@@H]1F` [compound 108], the values for the pIC50 in assay [1] and in assay [2] were 6.98 and 6.61, respectively. The like results for `Nc1nc(Cl)nc2c1ncn2[C@@H]1O[C@H](COC(Cc2ccc(Cl)c(Cl)c2)(C(=O)O)C(=O)O)[C@@H](O)[C@@H]1F` [compound 128] were, in that order, 6.59 and 6.08. For the compound `Nc1nc(Cl)nc2c1ncn2[C@@H]1O[C@H](COC(Cc2ccccc2)(C(=O)O)C(=O)O)[C@@H](O)[C@H]1N` [compound 55, 2-(((2R,3S,4R,5R)-4-amino-5-(6-amino-2-chloro-9H-purin-9-yl)-3-hydroxytetrahydrofuran-2-yl)methoxy)-2-benzylmalonic acid], in assay [2], the pIC50 is below 4.30.

As to `Nc1nc(Cl)nc2c1ncn2[C@@H]1O[C@H](COC(Cc2ccccc2F)(C(=O)O)C(=O)O)[C@@H](O)[C@@H]1F` [compound 127], the pIC50 is 6.83 in assay [1] and 6.39 in assay [2]. For `Nc1nc(Cl)nc2c1ncn2[C@@H]1O[C@H](COC(Cc2ccc(OCc3ccccc3)cc2)(C(=O)O)C(=O)O)[C@@H](O)[C@@H]1F` [compound 65, 2-(((2R,3R,4S,5R)-5-(6-amino-2-chloro-9H-purin-9-yl)-4-fluoro-3-hydroxytetrahydrofuran-2-yl)methoxy)-2-(4-(benzyloxy)benzyl)malonic acid], the pIC50 in assay [1] is 7.51.

Regarding `Nc1nc(Cl)nc2c1ncn2[C@@H]1O[C@H](COC(Cc2ccc(C(=O)O)cc2F)(C(=O)O)C(=O)O)[C@@H](O)[C@@H]1F` [compound 57, 2-(((2R,3R,4S,5R)-5-(6-amino-2-chloro-9H-purin-9-yl)-4-fluoro-3-hydroxytetrahydrofuran-2-yl)methoxy)-2-(4-carboxy-2-fluorobenzyl)malonic acid], the pIC50 in assay [1] was 6.85. For the compound `Nc1nc(Cl)nc2c1ncn2[C@@H]1O[C@H](COC(Cc2ccc(S(N)(=O)=O)cc2)(C(=O)O)C(=O)O)[C@@H](O)[C@@H]1F` [compound 86, 2-(((2R,3R,4S,5R)-5-(6-amino-2-chloro-9H-purin-9-yl)-4-fluoro-3-hydroxytetrahydrofuran-2-yl)methoxy)-2-(4-sulfamoylbenzyl)malonic acid], in assay [1], the pIC50 is 7.21.
